First: O=c1oc2ccccc2c(O)c1C(Sc1ccc(Cl)cc1)c1cc(F)ccc1F (centres unmarked)
Second: O=S(=O)(c1ccc(Cl)cc1)C(Sc1ccccc1)c1cc(F)ccc1F (centres unmarked) [Example 57, 2-[1-[(4-Chlorophenyl)sulfonyl]-1-phenylthio]methyl-1,4-difluorobenzene]
The melting point of the first is higher: 146 to 147 °C for the first, 84 to 85 °C for the second.

First: Cl.O=C(OCCC(c1cc(F)ccc1F)S(=O)(=O)c1ccc(Cl)cc1)N1CCN(Cc2ccccc2)CC1 (centres unmarked)
Second: O=C(CC(c1cc(F)ccc1F)S(=O)(=O)c1ccc(Cl)cc1)OCc1ccccc1 (centres unmarked) [Example 59, Benzyl 3-(4-chlorophenylsulfonyl)-3-(2,5-difluorophenyl)propionate]
The melting point of the first is higher: 184 to 189 °C for the first, 127 to 128 °C for the second.

Compared with `Cl.NCCCC(c1cc(F)ccc1F)S(=O)(=O)c1ccc(Cl)cc1` (centres unmarked), `CSCCCCC(c1cc(F)ccc1F)S(=O)(=O)c1ccc(Cl)cc1` (centres unmarked) [Example 26, 2-[1-[(4-Chlorophenyl)sulfonyl]-5-(methylthio)pentyl]-1,4-difluorobenzene] is lower in melting point: 232 to 233 °C for the first, 103 to 106 °C for the second.

First: Cl.O=C(NCCCC(c1cc(F)ccc1F)S(=O)(=O)c1ccc(Cl)cc1)c1cccnc1 (centres unmarked)
Second: Cl.O=S(=O)(c1ccc(Cl)cc1)C(CCNCCO)c1cc(F)ccc1F (centres unmarked)
The melting point of the first is lower: 154 to 157 °C for the first, 216 to 220 °C for the second.

First: Cl.O=S(=O)(c1ccc(Cl)cc1)C(CCCCN1CCCC1)c1cc(F)ccc1F (centres unmarked)
Second: O=S(=O)(c1ccc(Cl)cc1)C(CCCCCBr)c1cc(F)ccc1F (centres unmarked) [Example 37, 2-[6-Bromo-1-[(4-chlorophenyl)sulfonyl]hexyl]-1,4-difluorobenzene]
The melting point of the first is higher: 167 to 170.5 °C for the first, 77 to 79 °C for the second.

Compared with `Cl.O=S(=O)(c1ccc(Cl)cc1)C(c1cc(F)ccc1F)C1CCNCC1` (centres unmarked), `CSC(c1cc(F)ccc1F)S(=O)(=O)c1ccc(Cl)cc1` (centres unmarked) [Example 56, 2-[1-[(4-Chlorophenyl)sulfonyl]-1-methylthio]methyl-1,4-difluorobenzene] is lower in melting point: 184 to 190 °C for the first, 128 to 129 °C for the second.

Compared with `O=S(=O)(c1ccc(Cl)cc1)C(c1cc(F)ccc1F)c1cc(Cl)ncc1Cl` (centres unmarked) (hydrate or solvate) [Example 345, 2,5-Dichloro-4-[(4-chlorophenylsulfonyl)-(2,5-difluorophenyl)methyl]pyridine 0.5 hydrate], `O=C(O)CC(c1cc(F)ccc1F)S(=O)(=O)c1ccc(Cl)cc1` (centres unmarked) [Example 62, 3-[(4-Chlorophenyl)sulfonyl]-3-(2,5-difluorophenyl)propionic Acid] is higher in melting point: 147 to 148 °C for the first, 152 to 153 °C for the second.

Compared with `CC(CCO)C(c1cc(F)ccc1F)S(=O)(=O)c1ccc(Cl)cc1` (single isomer, unassigned) [Example 238, 4-(4-Chlorophenylsulfonyl)-4-(2,5-difluorophenyl)-3-methyl-1-butanol], `CC(CCCO)C(c1cc(F)ccc1F)S(=O)(=O)c1ccc(Cl)cc1` (centres unmarked) [Example 39, 5-[(4-Chlorophenyl)sulfonyl]-5-(2,5-difluorophenyl)-4-methyl-1-pentanol] is lower in melting point: 111 to 112 °C for the first, 84 to 86 °C for the second.

First: CC(CCO)C(c1cc(F)ccc1F)S(=O)(=O)c1ccc(Cl)cc1 (single isomer, unassigned) [Example 239, 4-(4-Chlorophenylsulfonyl)-4-(2,5-difluorophenyl)-3-methyl-1-butanol]
Second: CC(CCCO)C(c1cc(F)ccc1F)S(=O)(=O)c1ccc(Cl)cc1 (centres unmarked) [Example 40, 5-[(4-Chlorophenyl)sulfonyl]-5-(2,5-difluorophenyl)-4-methyl-1-pentanol]
The melting point of the first is lower: 65 to 67 °C for the first, 67 to 69 °C for the second.

First: O=S(=O)(/C(=C/c1ccccc1)c1cc(F)ccc1F)c1ccc(Cl)cc1 [Example 6, E-2-[1-[(4-Chlorophenyl)sulfonyl]-2-phenylethenyl]-1,4-difluorobenzene]
Second: O=C(c1ccccc1)C(c1cc(F)ccc1F)S(=O)(=O)c1ccc(Cl)cc1 (centres unmarked) [Example 8, 2-[(4-Chlorophenyl)sulfonyl]-2-(2,5-difluorophenyl)-1-phenyl-1-ethanone]
The melting point of the first is lower: 144.5 to 145 °C for the first, 179.5 to 180 °C for the second.

First: CCCC(=O)C(c1cc(F)ccc1F)S(=O)(=O)c1ccc(Cl)cc1 (centres unmarked) [Example 7, 1-[(4-Chlorophenyl)sulfonyl]-1-(2,5-difluorophenyl)-2-pentanone]
Second: CCCC(O)C(c1cc(F)ccc1F)S(=O)(=O)c1ccc(Cl)cc1 (centres unmarked) [Example 11, 1-[(4-Chlorophenyl)sulfonyl]-1-(2,5-difluorophenyl)-2-pentanol]
The melting point of the first is higher: 85.5 to 86 °C for the first, 76.5 to 78 °C for the second.

Compared with `O=C(OC(=C(c1cc(F)ccc1F)S(=O)(=O)c1ccc(Cl)cc1)c1ccccc1)c1ccccc1` [Example 9, 2-[(4-Chlorophenyl)sulfonyl]-2-(2,5-difluorophenyl)-1-phenylethenyl benzoate], `CCOC(=O)CC(c1cc(F)ccc1F)S(=O)(=O)c1ccc(Cl)cc1` (centres unmarked) [Example 25, Ethyl 3-[(4-chlorophenyl)sulfonyl]-3-(2,5-difluorophenyl)propionate] is lower in melting point: 224.5 to 227 °C for the first, 99.5 to 100.5 °C for the second.

First: O=S(=O)(c1ccc(Cl)cc1)C(CCCCO)(CCCCO)c1cc(F)ccc1F [Example 19, 5-[(4-Chlorophenyl)sulfonyl]-5-(2,5-difluorophenyl)-1,9-nonanediol]
Second: C=COCCCCC(c1cc(F)ccc1F)S(=O)(=O)c1ccc(Cl)cc1 (centres unmarked) [Example 28, 2-[1-[(4-Chlorophenyl)sulfonyl]-5-vinyloxypentyl]-1,4-difluorobenzene]
The melting point of the first is higher: 107 to 108.5 °C for the first, 54 to 56 °C for the second.

First: O=S(=O)(c1ccc(Cl)cc1)C1(c2cc(F)ccc2F)CCCC1 [Example 30, 2-[1-[(4-Chlorophenyl)sulfonyl]cyclopentyl]-1,4-difluorobenzene]
Second: CC(C)(C)OC(=O)CC(c1cc(F)ccc1F)S(=O)(=O)c1ccc(Cl)cc1 (centres unmarked) [Example 61, t-Butyl 3-[(4-chlorophenyl)sulfonyl]-3-(2,5-difluorophenyl)propionate]
The melting point of the first is higher: 153 to 155 °C for the first, 140.5 to 142 °C for the second.

Compared with `C=COCCOCCC(c1cc(F)ccc1F)S(=O)(=O)c1ccc(Cl)cc1` (centres unmarked) [Example 34, 2-[1-[(4-Chlorophenyl)sulfonyl]-3-(2-vinyloxyethoxy)propyl]-1,4-difluorobenzene], `CS(=O)(=O)CCCCC(c1cc(Cl)ccc1F)S(=O)(=O)c1ccc(Cl)cc1` (centres unmarked) [Example 79, 4-Chloro-2-[1-(4-chlorophenylsulfonyl)-5-(methylsulfonyl)pentyl]-1-fluorobenzene] is higher in melting point: 55 to 56 °C for the first, 116 to 117 °C for the second.

First: O=S(=O)(Cc1ccccc1)c1ccc(Cl)cc1 [Example 50, 1-Chloro-4-(benzylsulfonyl)benzene]
Second: C[S+]([O-])CCCCC(c1ccccc1)S(=O)(=O)c1ccc(Cl)cc1 (centres unmarked) [Example 52, 1-Chloro-4-(5-methylsulfinyl-1-phenylpentyl)sulfonylbenzene]
The melting point of the first is higher: 147.5 to 148.5 °C for the first, 98.5 to 99.5 °C for the second.

First: CS(=O)(=O)CCCCC(c1ccccc1)S(=O)(=O)c1ccc(Cl)cc1 (centres unmarked) [Example 51, 1-Chloro-4-(5-methylsulfonyl-1-phenylpentyl)sulfonylbenzene]
Second: CS(=O)(=O)CCCCC(c1ccccc1F)S(=O)(=O)c1ccc(Cl)cc1 (centres unmarked) [Example 53, 1-[1-[(4-Chlorophenyl)sulfonyl]-5-(methylsulfonyl)pentyl]-2-fluorobenzene]
The melting point of the first is lower: 151 to 152 °C for the first, 167 to 168 °C for the second.

Compared with `CS(=O)(=O)CCCCC(c1cccc(F)c1)S(=O)(=O)c1ccc(Cl)cc1` (centres unmarked) [Example 54, 1-[1-[(4-Chlorophenyl)sulfonyl]-5-(methylsulfonyl)pentyl]-3-fluorobenzene], `CS(=O)(=O)CCCCC(c1ccc(F)cc1)S(=O)(=O)c1ccc(Cl)cc1` (centres unmarked) [Example 55, 1-[1-[(4-Chlorophenyl)sulfonyl]-5-(methylsulfonyl)pentyl]-4-fluorobenzene] is higher in melting point: 116 to 117 °C for the first, 141 to 142.5 °C for the second.

First: CS(=O)(=O)CCCCC(c1ccc2ccccc2c1)S(=O)(=O)c1ccc(Cl)cc1 (centres unmarked) [Example 67, 2-[1-[(4-Chlorophenyl)sulfonyl]-5-(methylsulfonyl)pentyl]naphthalene]
Second: CS(=O)(=O)CCCCC(c1ccc(Cl)c(Cl)c1)S(=O)(=O)c1ccc(Cl)cc1 (centres unmarked) [Example 69, 1,2-Dichloro-4-[1-[(4-chlorophenyl)sulfonyl]-5-(methylsulfonyl)pentyl]benzene]
The melting point of the first is higher: 146 to 147 °C for the first, 143 to 144 °C for the second.

First: CS(=O)(=O)CCCCC(c1ccc(F)cc1Cl)S(=O)(=O)c1ccc(Cl)cc1 (centres unmarked) [Example 68, 2-Chloro-1-[1-[(4-chlorophenyl)sulfonyl]-5-(methylsulfonyl)pentyl]-4-fluorobenzene]
Second: CS(=O)(=O)CCCCC(c1cccc(Cl)c1F)S(=O)(=O)c1ccc(Cl)cc1 (centres unmarked) [Example 78, 1-Chloro-3-[1-(4-chlorophenylsulfonyl)-5-(methylsulfonyl)pentyl]-2-fluorobenzene]
The melting point of the first is lower: 124 to 125 °C for the first, 131 to 132 °C for the second.

Compared with `CS(=O)(=O)CCCCC(c1ccccn1)S(=O)(=O)c1ccc(Cl)cc1` (centres unmarked) [Example 70, 2-[1-[(4-Chlorophenyl)sulfonyl]-5-(methylsulfonyl)pentyl]pyridine], `CS(=O)(=O)CCCCC(c1ccncc1)S(=O)(=O)c1ccc(Cl)cc1` (centres unmarked) [Example 74, 4-[1-[(4-Chlorophenyl)sulfonyl]-5-(methylsulfonyl)pentyl]pyridine] is higher in melting point: 140 to 141 °C for the first, 181 to 182 °C for the second.

Compared with `CS(=O)(=O)CCCCC(c1cc(F)cc(F)c1)S(=O)(=O)c1ccc(Cl)cc1` (centres unmarked) [Example 72, 1-[1-[(4-Chlorophenyl)sulfonyl]-5-(methylsulfonyl)pentyl]-3,5-difluorobenzene], `CS(=O)(=O)CCCCC(c1ccc(F)c(F)c1)S(=O)(=O)c1ccc(Cl)cc1` (centres unmarked) [Example 76, 4-[1-(4-Chlorophenylsulfonyl)-5-(methylsulfonyl)pentyl]-1,2-difluorobenzene] is lower in melting point: 126 to 127 °C for the first, 122 to 124 °C for the second.

First: CS(=O)(=O)CCCCC(c1cccc(F)c1F)S(=O)(=O)c1ccc(Cl)cc1 (centres unmarked) [Example 77, 1-[1-(4-Chlorophenylsulfonyl)-5-(methylsulfonyl)pentyl]-2,3-difluorobenzene]
Second: CS(=O)(=O)CCCCC(c1c(F)cccc1F)S(=O)(=O)c1ccc(Cl)cc1 (centres unmarked) [Example 81, 2-[1-(4-Chlorophenylsulfonyl)-5-(methylsulfonyl)pentyl]-1,3-difluorobenzene]
The melting point of the first is higher: 141 to 143 °C for the first, 118 to 119 °C for the second.

In the case of `Cl.O=S(=O)(c1ccc(Cl)cc1)C1(c2cc(F)ccc2F)CCNCC1`, the melting point is reported as 239 to 246 °C (dec.).
